Measurements reported in patent publication US12161694B2, “Methods and compositions for regulating innate lymphoid cell inflammatory responses” (The Broad Institute, Inc., priority 2017, dated 2024).
Where no end group is shown, it is not given here.

Test system: lung-resident ILCs
Assay: Flow cytometry of lung ILCs after in vivo treatment (Ki-67, ILC frequency, IL-17RB, surface and intracellular markers)
Design: species or system mouse
Excerpt: Mice and in vivo ILC activation. C57Bl/6J mice were purchased from the Jackson Laboratory. Nmur1-LacZ reporter mice with a LacZ cassette knocked into the Nmur1 locus were rederived from Nmur1^tm1.1(KOMP)Vleg sperm obtained from the trans-NIH Knock-Out Mouse Project (KOMP) Repository. Mice were housed under specific-pathogen-free conditions. For experiments, mice were matched for sex and age, and most mice were 6-10 weeks old. Where indicated, mice were anesthetized with Isoflurane and treated intranasally with the indicated stimuli (500 ng IL-25, 500 ng IL-33, or 20 μg Neuromedin U) daily for three consecutive days. The total administered volume was 20 μl for all conditions. Mice were randomly assigned to treatment groups after matching for sex and age. […] Mice were treated intranasally with 10 μg HDM on day 0, 7, 8, and 9, prior to sacrifice on day 10. […]
Flow cytometry. […] Cells were stained on ice with antibodies for surface molecules and the live/dead marker 7AAD and analyzed on a LSRFortessa (BD Biosciences). […]
Lung analysis. […] BALF was centrifuged, and the supernatant was used for analyzing cytokine levels and the cell pellet was resuspended, counted, and used for flow cytometry. […] Where indicated, cells were diluted in 10% Trypan Blue and viable cells counted using a hemocytometer. […]

## Neuromedin U (FRVDEEFQSPFASQSRGYFLFRPRN-NH2; listed as Homo sapiens) [NMU, neuropeptide ligand of Nmur1 (US Biological)]
  Galectin-3 (Lgals3) and gp49 (Lilrb4a) expression on ILCs: up-regulated
